Results taken from patent US8691849B2, “3-azabicyclo[3.1.0]hexyl derivatives as modulators of metabotropic glutamate receptors” (Janssen Pharmaceuticals, Inc., priority 2008, dated 2014).

What was measured:
human mGluR2 receptor = biological target: T1, human mGluR2 receptor (Homo sapiens, UniProt Q14416); test: [35S]GTPγS binding assay (PAM assay), membranes from CHO cells transfected with human mGluR2; format: biochemical; settings: in presence of glutamate at predetermined EC25 concentration; averages of duplicate values of 11-concentration response curves; read-out: GTPγS - hR2 PAM pEC50 (converted)
T1 construct: expressed in transfected cells; host or cells: CHO cells
T1 sequence (Q14416 19-872): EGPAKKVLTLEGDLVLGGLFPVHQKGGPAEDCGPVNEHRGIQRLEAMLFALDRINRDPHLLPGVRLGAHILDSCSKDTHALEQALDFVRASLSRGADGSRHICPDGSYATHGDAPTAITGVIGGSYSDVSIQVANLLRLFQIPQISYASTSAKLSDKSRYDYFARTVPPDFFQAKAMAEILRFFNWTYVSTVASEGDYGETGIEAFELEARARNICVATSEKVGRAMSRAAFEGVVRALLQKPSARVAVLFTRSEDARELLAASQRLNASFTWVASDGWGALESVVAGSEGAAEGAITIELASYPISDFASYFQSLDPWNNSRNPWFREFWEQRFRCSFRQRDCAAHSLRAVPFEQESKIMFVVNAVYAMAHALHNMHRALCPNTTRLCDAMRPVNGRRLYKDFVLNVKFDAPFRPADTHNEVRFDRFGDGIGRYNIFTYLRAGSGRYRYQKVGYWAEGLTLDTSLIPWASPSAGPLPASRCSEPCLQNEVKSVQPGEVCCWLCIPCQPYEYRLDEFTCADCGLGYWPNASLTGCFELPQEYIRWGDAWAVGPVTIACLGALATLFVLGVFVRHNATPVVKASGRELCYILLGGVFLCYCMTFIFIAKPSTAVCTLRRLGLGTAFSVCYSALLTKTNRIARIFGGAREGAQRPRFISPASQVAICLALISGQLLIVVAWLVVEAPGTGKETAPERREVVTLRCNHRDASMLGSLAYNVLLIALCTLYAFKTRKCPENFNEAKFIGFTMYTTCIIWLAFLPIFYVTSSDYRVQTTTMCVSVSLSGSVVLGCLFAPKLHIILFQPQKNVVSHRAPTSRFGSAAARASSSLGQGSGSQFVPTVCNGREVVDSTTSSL
Description: The compounds provided in the present invention are positive allosteric modulators of mGluR2. These compounds appear to potentiate glutamate responses by binding to an allosteric site other than the glutamate binding site. The response of mGluR2 to a concentration of glutamate is increased when compounds of Formula (I) are present. Compounds of Formula (I) are expected to have their effect substantially at mGluR2 by virtue of their ability to enhance the function of the receptor. The behaviour of positive allosteric modulators tested at mGluR2 using the [^35S]GTPγS binding assay method described below and which is suitable for the identification of such compounds, and more particularly the compounds according to Formula (I), are shown in Table 2.
The [^35S]GTPγS binding assay is a functional membrane-based assay used to study G-protein coupled receptor (GPCR) function whereby incorporation of a non-hydrolysable form of GTP, [^35S]GTPγS (guanosine 5′-triphosphate, labelled with […] ^35S), is measured. The G-protein α subunit catalyzes the exchange of guanosine 5′-diphosphate (GDP) by guanosine triphosphate (GTP) and on activation of the GPCR by an agonist, [^35S]GTPγS, becomes incorporated and cannot be cleaved to continue the exchange cycle (Harper (1998) Current Protocols in Pharmacology 2.6.1-10, John Wiley & Sons, Inc.). […] Here we describe the use of the [^35S]GTPγS binding assay using membranes from cells transfected with the human mGluR2 receptor and adapted from Schaffhauser et al ((2003) Molecular Pharmacology 4:798-810) for the detection of the positive allosteric modulation (PAM) properties of the compounds of this invention.
CHO-cells were cultured to pre-confluence and stimulated with 5 mM butyrate for 24 hours, prior to washing in PBS, and then collected by scraping in homogenisation buffer (50 mM Tris-HCl buffer, pH 7.4, 4° C.). […] Protein concentration was determined by the Bradford method (Bio-Rad, USA) with bovine serum albumin as standard.
Measurement of mGluR2 positive allosteric modulatory activity of test compounds in membranes containing human mGluR2 was performed using frozen membranes that were thawed and briefly homogenized prior to pre-incubation in 96-well microplates (15 μg/assay well, 30 minutes, 30° C.) in assay buffer (50 mM HEPES pH 7.4, 100 mM NaCl, 3 mM MgCl2, 50 μM GDP, 10 μg/ml saponin,) with increasing concentrations of positive allosteric modulator (from 0.3 nM to 50 μM) and either a minimal pre-determined concentration of glutamate (PAM assay), or no added glutamate. […] Filters were then air-dried, and 40 μl of liquid scintillation cocktail (Microscint-O) was added to each well, and membrane-bound [^35S]GTPγS was measured in a 96-well scintillation plate reader (Top-Count, Perkin-Elmer, USA). […]

EC50 (human mGluR2 receptor) [nM]	melting point [°C]	SMILES
275	172.2	O=c1c(Cl)c(N2CC3[C@H](C2)[C@H]3c2ccccc2)ccn1CC1CC1 (stereo partly drawn) [Compound E1, (2aα,3α,3aα)-3-Chloro-1-cyclopropylmethyl-4-(6-phenyl-3-aza-bicyclo[3.1.0]hex-3-yl)-1H-pyridin-2-one]
123	–	CCCCn1ccc(N2C[C@@H]3[C@@H](COc4cc(Cl)ccc4Cl)[C@@H]3C2)c(Cl)c1=O [Compound E2]
126	–	CCCCn1ccc(N2C[C@@H]3[C@H](COc4cc(Cl)ccc4Cl)[C@@H]3C2)c(Cl)c1=O [Compound E3]
89.1	185.9	CCCCn1ccc(N2C[C@@H]3[C@H](C2)[C@H]3c2ccccc2)c(Cl)c1=O [Compound E4, (2aα,3α,3aα)-1-Butyl-3-chloro-4-(6-phenyl-3-aza-bicyclo[3.1.0]hex-3-yl)-1H-pyridin-2-one]
